Assay results as given in publication PMC8119466, “A screen of FDA-approved drugs identifies inhibitors of protein tyrosine phosphatase 4A3 (PTP4A3 or PRL-3)” (Scientific Reports, 2021).
Counter-ions that a name gives are not always drawn. Like-named read-outs stand apart in the source and are kept apart here.

Key:
Assay type in all cases: biochemical
recombinant PRL-1 = biological target: T1, recombinant PRL-1 (Homo sapiens, UniProt Q93096); assay: In vitro phosphatase assay (DiFMUP hydrolysis), PRL-1; also: test concentration or dose not given here
T1 construct: 6xHis (N, cleaved yes); made in house; host or cells: E. coli One Shot BL21 Star
T1 sequence (Q93096 1-173): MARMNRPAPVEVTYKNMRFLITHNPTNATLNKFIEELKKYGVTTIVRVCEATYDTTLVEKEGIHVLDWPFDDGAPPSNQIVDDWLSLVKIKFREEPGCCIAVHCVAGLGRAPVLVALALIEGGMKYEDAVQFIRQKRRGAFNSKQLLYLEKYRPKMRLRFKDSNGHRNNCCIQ

recombinant PRL-2 = biological target: T2, recombinant PRL-2 (Homo sapiens, UniProt Q12974); assay: In vitro phosphatase assay (DiFMUP hydrolysis), PRL-2;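 also: PRL-2 activity read as DiFMUP hydrolysis after 20 min at room temperature with drug, enzyme first pre-reduced at 4 °C for 20 min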
T2 construct: 6xHis (N, cleaved yes); made in house; host or cells: E. coli One Shot BL21 Star
T2 sequence (Q12974 1-167): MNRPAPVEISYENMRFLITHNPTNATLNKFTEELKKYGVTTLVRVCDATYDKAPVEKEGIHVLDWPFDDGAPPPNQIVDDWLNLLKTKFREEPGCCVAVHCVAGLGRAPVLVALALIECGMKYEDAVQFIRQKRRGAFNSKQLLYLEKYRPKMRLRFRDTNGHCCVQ

recombinant PRL-3 = biological target: T3, recombinant PRL-3 (Homo sapiens, UniProt O75365); assay: In vitro phosphatase assay (DiFMUP hydrolysis), PRL-3; also: test concentration or dose not given here
T3 construct: 6xHis (N, cleaved yes); made in house; host or cells: E. coli One Shot BL21 Star

[1] = FDA-approved drug screen, activity compared to DMSO
[2] = FDA-approved drug screen, compared to DMSO

T3 sequence (O75365 whole entry): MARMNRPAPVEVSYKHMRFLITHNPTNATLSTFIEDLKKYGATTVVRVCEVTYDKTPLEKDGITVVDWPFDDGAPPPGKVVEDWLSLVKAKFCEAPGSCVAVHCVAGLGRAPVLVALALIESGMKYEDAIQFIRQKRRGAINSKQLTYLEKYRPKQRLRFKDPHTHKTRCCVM

Compound	% Phosphatase Activity (compared to DMSO) PRL-1 (recombinant PRL-1; [2])	% Phosphatase Activity (compared to DMSO) PRL-2 (recombinant PRL-2; [2])	% Phosphatase Activity (compared to DMSO) PRL-3 (recombinant PRL-3; [2])	other results
CN(C/C=C/C#CC(C)(C)C)Cc1cccc2ccccc12 [Terbinafine HCl]				% Phosphatase Activity (compared to DMSO) PRL-1 (recombinant PRL-1; [1]): 100%; % Phosphatase Activity (compared to DMSO) PRL-2 (recombinant PRL-2; [1]): 108%; % Phosphatase Activity (compared to DMSO) PRL-3 (recombinant PRL-3; [1]): 86%
Cc1onc(-c2ccccc2)c1C(=O)N[C@@H]1C(=O)N2[C@@H]1SC(C)(C)[C@@H]2C(=O)[O-].O.[Na+] [Oxacillin sodium monohydrate]	98%	90%	83%	
CN(C)[C@@H](CCOc1cccc2ccccc12)c1ccccc1 [Dapoxetine HCl]	99%	109%	111%	
CNCc1ccc(-c2[nH]c3cc(F)cc4c3c2CCNC4=O)cc1 [Rucaparib (AG-014699,PF-01367338)]	2402%	3226%	2134%	
CCCCOc1ccc(OCCCN2CCOCC2)cc1 [Pramoxine HCl]	82%	91%	74%	
COc1ccc(/C=C\c2cc(OC)c(OC)c(OC)c2)cc1OP(=O)([O-])[O-].[Na+].[Na+]	88%	76%	109%	
CCCN(CCC)C(=O)C1=Cc2ccc(-c3ccc(C(=O)N4CCCC4)cc3)cc2N=C(N)C1 [Motolimod (VTX-2337)]	103%	90%	106%	
CCCCOc1ccc(CC(=O)NO)cc1 [Bufexamac]	117%	110%	91%	
CC(C)(Sc1cc(C(C)(C)C)c(O)c(C(C)(C)C)c1)Sc1cc(C(C)(C)C)c(O)c(C(C)(C)C)c1 [Probucol]	100%	122%	78%	
CCOC(=O)[C@H]1O[C@@H]1C(=O)N[C@@H](CC(C)C)C(=O)NCCC(C)C [Aloxistatin]	87%	78%	86%	
Heparin sodium	86%	72%	78%	
NCCC(O)(P(=O)([O-])O)P(=O)([O-])O.[Na+].[Na+] [Pamidronate Disodium]	98%	80%	91%	
O=c1ccc2ccccc2o1 [Coumarin]	92%	98%	76%	
COC(=O)N[C@H](C(=O)N1CC2(CC2)C[C@H]1c1nc(-c2ccc3c(c2)C(F)(F)c2cc(-c4ccc5[nH]c([C@@H]6[C@H]7CC[C@H](C7)N6C(=O)[C@@H](NC(=O)OC)C(C)C)nc5c4)ccc2-3)c[nH]1)C(C)C [Ledipasvir (GS5885)]	174%	115%	144%	
OC[C@H]1O[C@@H](O[C@@H]2[C@@H](CO)OC(O)(CO)[C@H]2O)[C@H](O)[C@@H](O)[C@H]1O (mixture of isomers) [Lactulose]	104%	115%	85%	
CC(=O)Nc1cccc(-n2c(=O)n(C3CC3)c(=O)c3c(Nc4ccc(I)cc4F)n(C)c(=O)c(C)c32)c1 [Trametinib (GSK1120212)]				% Phosphatase Activity (compared to DMSO) PRL-1 (recombinant PRL-1; [1]): 88%; % Phosphatase Activity (compared to DMSO) PRL-2 (recombinant PRL-2; [1]): 112%; % Phosphatase Activity (compared to DMSO) PRL-3 (recombinant PRL-3; [1]): 88%
CC(C)NC[C@H](O)COc1ccc(CCOCC2CC2)cc1.Cl [Levobetaxolol HCl]				% Phosphatase Activity (compared to DMSO) PRL-1 (recombinant PRL-1): 100%; % Phosphatase Activity (compared to DMSO) PRL-2 (recombinant PRL-2): 99%; % Phosphatase Activity (compared to DMSO) PRL-3 (recombinant PRL-3): 69%
Nc1nc(N)c2nc(-c3ccccc3)c(N)nc2n1 [Triamterene]				% Phosphatase Activity (compared to DMSO) PRL-1 (recombinant PRL-1; [1]): 7090%; % Phosphatase Activity (compared to DMSO) PRL-2 (recombinant PRL-2; [1]): 6324%; % Phosphatase Activity (compared to DMSO) PRL-3 (recombinant PRL-3; [1]): 3828%
COC(=O)Nc1nc2ccc([S+]([O-])c3ccccc3)cc2[nH]1 (stereo not drawn) [Oxfendazole]	84%	102%	92%	
NS(=O)(=O)c1ccc(C(=O)O)cc1 [Carzenide]	105%	98%	89%	

Compound	% Phosphatase Activity (compared to DMSO) PRL-1 (recombinant PRL-1; [2])	% Phosphatase Activity (compared to DMSO) PRL-2 (recombinant PRL-2; [2])	% Phosphatase Activity (compared to DMSO) PRL-3 (recombinant PRL-3; [2])	other results
Cc1cnc(C(=O)NCCc2ccc(S(=O)(=O)NC(=O)NC3CCCCC3)cc2)cn1 [Glipizide]				% Phosphatase Activity (compared to DMSO) PRL-1 (recombinant PRL-1): 97%; % Phosphatase Activity (compared to DMSO) PRL-2 (recombinant PRL-2): 98%; % Phosphatase Activity (compared to DMSO) PRL-3 (recombinant PRL-3): 75%
CCOC(=O)c1ccc(N)cc1 [Benzocaine]	87%	98%	84%	
CC(C)(Oc1ccc(C2CC2(Cl)Cl)cc1)C(=O)O (stereo not drawn) [Ciprofibrate]	95%	91%	88%	
O=C(NC[C@H](O)CO)c1ccncc1Nc1ccc(I)cc1F [Pimasertib (AS-703026)]	99%	92%	84%	
CN(C)[C@@H]1C(O)=C(C(N)=O)C(=O)[C@@]2(O)C(O)=C3C(=O)c4c(O)ccc(Cl)c4[C@@](C)(O)[C@H]3C[C@@H]12 [Chlortetracycline HCl]	106%	95%	77%	
O=C(O)c1cc(-c2ccccc2)nc2ccccc12 [Cinchophen]	86%	101%	79%	
CCCCCN(C)CCC(O)(P(=O)([O-])O)P(=O)(O)O.[Na+] [Ibandronate sodium]	93%	96%	109%	
C[C@]12C=CC(=O)C=C1CC[C@H]1[C@@H]3C[C@@H](O)[C@](O)(C(=O)CO)[C@@]3(C)C[C@H](O)[C@@]12F [Triamcinolone]				% Phosphatase Activity (compared to DMSO) PRL-1 (recombinant PRL-1; [1]): 91%; % Phosphatase Activity (compared to DMSO) PRL-2 (recombinant PRL-2; [1]): 97%; % Phosphatase Activity (compared to DMSO) PRL-3 (recombinant PRL-3; [1]): 81%
CCCNC(C)C(=O)Nc1c(C)csc1C(=O)OC (stereo not drawn) [Articaine HCl]	110%	109%	84%	
CN1[C@@H]2CC[C@H]1C[C@@H](OC(c1ccccc1)c1ccccc1)C2 [Benztropine mesylate]	94%	106%	89%	
CCN(CC)CCNC(=O)c1cc(Cl)c(N)cc1OC.Cl [MetoclopraMide HCl]	97%	84%	75%	
CCOC(N)=O [Urethane]				% Phosphatase Activity (compared to DMSO) PRL-1 (recombinant PRL-1; [1]): 99%; % Phosphatase Activity (compared to DMSO) PRL-2 (recombinant PRL-2; [1]): 100%; % Phosphatase Activity (compared to DMSO) PRL-3 (recombinant PRL-3; [1]): 91%
CC(=O)CCCCn1c(=O)c2c(ncn2C)n(C)c1=O [Pentoxifylline]	85%	92%	92%	
CCOc1ccc(Cc2cc([C@@H]3O[C@H](CO)[C@@H](O)[C@H](O)[C@H]3O)ccc2Cl)cc1 [Dapagliflozin]				% Phosphatase Activity (compared to DMSO) PRL-1 (recombinant PRL-1): 98%; % Phosphatase Activity (compared to DMSO) PRL-2 (recombinant PRL-2): 91%; % Phosphatase Activity (compared to DMSO) PRL-3 (recombinant PRL-3): 89%
O=C(O)/C=C/c1ccc(Cn2ccnc2)cc1 [Ozagrel]	96%	101%	76%	
CN(C)CCOC(c1ccc(Cl)cc1)c1ccccn1.O=C(O)/C=C\C(=O)O (stereo not drawn) [ArbinoxaMine Maleate]	100%	77%	91%	
CN1CCN2c3ncccc3Cc3ccccc3C2C1 (stereo not drawn) [Mirtazapine]	92%	114%	98%	
C[C@H](CCC(=O)O)[C@H]1CC[C@H]2[C@@H]3CC[C@@H]4C[C@H](O)CC[C@]4(C)[C@H]3CC[C@]12C [Lithocholic acid]	82%	75%	73%	
CN1C(CCl)Nc2cc(Cl)c(S(N)(=O)=O)cc2S1(=O)=O (stereo not drawn) [Methyclothiazide]	100%	114%	62%	
Cc1c(-c2cnccn2)ssc1=S [Oltipraz]				% Phosphatase Activity (compared to DMSO) PRL-1 (recombinant PRL-1): 90%; % Phosphatase Activity (compared to DMSO) PRL-2 (recombinant PRL-2): 73%; % Phosphatase Activity (compared to DMSO) PRL-3 (recombinant PRL-3): 76%
